pIC50, pKi: −log10 of the molar value.
Key:
Assay type in all cases: biochemical
[1] = target: T1, hMeprin β (Homo sapiens, UniProt Q16820); experiment: Enzymatic assay, quenched peptide substrate cleavage, method A; conditions: geometric mean (geometric SD factor in parentheses), read-out: Meprin beta IC50
T1 sequence (Q16820 62-701): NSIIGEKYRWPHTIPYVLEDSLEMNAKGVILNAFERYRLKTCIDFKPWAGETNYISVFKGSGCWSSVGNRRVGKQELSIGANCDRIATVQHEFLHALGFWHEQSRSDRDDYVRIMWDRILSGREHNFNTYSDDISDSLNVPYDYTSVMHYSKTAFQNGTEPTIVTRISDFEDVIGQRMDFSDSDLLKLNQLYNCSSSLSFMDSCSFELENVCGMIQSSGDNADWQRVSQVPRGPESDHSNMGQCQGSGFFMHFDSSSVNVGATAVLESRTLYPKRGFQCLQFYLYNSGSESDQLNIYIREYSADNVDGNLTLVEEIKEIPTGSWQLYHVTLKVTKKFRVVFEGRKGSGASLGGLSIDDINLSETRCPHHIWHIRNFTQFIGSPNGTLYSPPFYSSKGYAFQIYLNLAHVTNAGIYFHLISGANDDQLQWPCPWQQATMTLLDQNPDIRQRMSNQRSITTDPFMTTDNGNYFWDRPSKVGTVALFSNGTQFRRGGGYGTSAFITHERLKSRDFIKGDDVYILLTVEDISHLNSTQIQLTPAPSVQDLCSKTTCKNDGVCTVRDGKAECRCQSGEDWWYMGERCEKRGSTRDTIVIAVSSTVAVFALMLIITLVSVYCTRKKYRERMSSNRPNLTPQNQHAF
Experimental: (§1) The determination of enzymatic activity was based on the cleavage of internally quenched peptide substrates. A typical assay of 250 μl total volume measured in black 96 well plates consisted of 100 μl buffer, 50 μl enzyme at a final concentration of 5e-8 M to 2e-10 M, 50 μl substrate (0.15 to 80 μM, in buffer, 0.5% DMSO) and 50 μl inhibitor solution (in buffer, 1% DMSO). In case of 125 μl assay volume (black 96 half area well plates) all volumes were cut in half. Enzymatic activity of ADAMs was measured in 384 well plates with 60 μl total assay volume consisting of 20 μl inhibitor, 20 μl buffer, 10 μl enzyme and 10 μl substrate.
(§2) Based on method B Ki^(app) values were determined using Morrison's equation. All measurements were performed using a fluorescence plate reader (FLUOSTAR OPTIMA, BMG Labtech) at 30° C. The kinetic parameters were determined at least in duplicates on separate days. The excitation/emission wavelength was 340/420 nm. The kinetic data was evaluated using GRAFIT software (version 7.0.3, Erithacus Software).

[2] = target: T2, hMeprin α (Homo sapiens, UniProt Q16819); experiment: as above; conditions: geometric mean (geometric SD factor in parentheses), read-out: Meprin alpha IC50
T2 sequence (Q16819 66-746): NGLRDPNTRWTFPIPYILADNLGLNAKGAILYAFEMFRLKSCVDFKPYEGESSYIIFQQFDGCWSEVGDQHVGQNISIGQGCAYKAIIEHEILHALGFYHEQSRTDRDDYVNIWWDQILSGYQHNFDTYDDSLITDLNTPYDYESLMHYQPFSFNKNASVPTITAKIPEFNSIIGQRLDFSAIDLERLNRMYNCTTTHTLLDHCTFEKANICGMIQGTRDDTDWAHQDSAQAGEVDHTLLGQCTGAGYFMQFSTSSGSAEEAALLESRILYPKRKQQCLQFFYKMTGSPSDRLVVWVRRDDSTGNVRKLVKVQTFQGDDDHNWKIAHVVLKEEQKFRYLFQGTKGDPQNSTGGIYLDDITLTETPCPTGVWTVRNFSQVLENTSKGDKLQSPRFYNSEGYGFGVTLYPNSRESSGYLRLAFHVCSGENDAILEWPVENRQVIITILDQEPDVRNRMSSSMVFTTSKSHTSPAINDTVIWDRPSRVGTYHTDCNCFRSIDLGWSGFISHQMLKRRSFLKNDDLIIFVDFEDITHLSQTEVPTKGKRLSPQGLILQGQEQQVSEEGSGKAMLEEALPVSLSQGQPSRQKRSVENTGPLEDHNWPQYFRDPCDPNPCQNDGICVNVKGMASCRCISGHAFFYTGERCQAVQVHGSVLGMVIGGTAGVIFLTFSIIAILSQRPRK
Experimental: as §1, §2

[3] = target: T1, hMeprin β; experiment: Enzymatic assay, quenched peptide substrate cleavage, method B; conditions: geometric mean (geometric SD factor in parentheses); for pKi: Morrison's equation, read-out: Meprin beta Ki(app); for pIC50: read-out: Meprin beta IC50
Experimental: as §1, §2

[4] = target: T2, hMeprin α; experiment: as above; conditions: geometric mean (geometric SD factor in parentheses); for pKi: Morrison's equation, read-out: Meprin alpha Ki(app); for pIC50: read-out: Meprin alpha IC50
Experimental: as §1, §2

[5] = target: T3, hMMP 9 (Homo sapiens, UniProt P14780); experiment: Residual enzyme activity of other metalloproteases; conditions: read-out: Residual enzyme activity MMP9
T3 construct: purchased R&D systems
T3 sequence (P14780 107-707 limits assumed): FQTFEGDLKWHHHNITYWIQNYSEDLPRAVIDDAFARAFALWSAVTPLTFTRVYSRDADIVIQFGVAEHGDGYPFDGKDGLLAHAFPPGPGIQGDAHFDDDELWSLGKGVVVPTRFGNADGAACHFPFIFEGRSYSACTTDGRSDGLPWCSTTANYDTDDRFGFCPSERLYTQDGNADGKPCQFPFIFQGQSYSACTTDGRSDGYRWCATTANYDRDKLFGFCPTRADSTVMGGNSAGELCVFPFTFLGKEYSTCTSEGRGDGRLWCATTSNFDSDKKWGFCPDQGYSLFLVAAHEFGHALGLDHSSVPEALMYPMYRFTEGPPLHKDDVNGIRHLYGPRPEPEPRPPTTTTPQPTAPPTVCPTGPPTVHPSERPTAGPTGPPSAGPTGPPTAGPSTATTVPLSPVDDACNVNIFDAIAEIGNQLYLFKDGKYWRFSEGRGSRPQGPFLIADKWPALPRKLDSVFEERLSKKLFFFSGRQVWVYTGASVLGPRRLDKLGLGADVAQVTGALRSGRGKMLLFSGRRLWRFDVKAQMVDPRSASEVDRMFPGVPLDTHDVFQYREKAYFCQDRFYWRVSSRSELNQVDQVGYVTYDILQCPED
Experimental: as §1
MMPs were activated prior to measurement by APMA (p-aminophenylmercuric acetate) treatment according to manufacturer's instructions (R&D systems).

[6] = target: T4, hADAM 10 (Homo sapiens, UniProt O14672); experiment: Residual enzyme activity of other metalloproteases; conditions: read-out: Residual enzyme activity ADAM10
T4 construct: purchased R&D systems
T4 sequence (O14672 214-748): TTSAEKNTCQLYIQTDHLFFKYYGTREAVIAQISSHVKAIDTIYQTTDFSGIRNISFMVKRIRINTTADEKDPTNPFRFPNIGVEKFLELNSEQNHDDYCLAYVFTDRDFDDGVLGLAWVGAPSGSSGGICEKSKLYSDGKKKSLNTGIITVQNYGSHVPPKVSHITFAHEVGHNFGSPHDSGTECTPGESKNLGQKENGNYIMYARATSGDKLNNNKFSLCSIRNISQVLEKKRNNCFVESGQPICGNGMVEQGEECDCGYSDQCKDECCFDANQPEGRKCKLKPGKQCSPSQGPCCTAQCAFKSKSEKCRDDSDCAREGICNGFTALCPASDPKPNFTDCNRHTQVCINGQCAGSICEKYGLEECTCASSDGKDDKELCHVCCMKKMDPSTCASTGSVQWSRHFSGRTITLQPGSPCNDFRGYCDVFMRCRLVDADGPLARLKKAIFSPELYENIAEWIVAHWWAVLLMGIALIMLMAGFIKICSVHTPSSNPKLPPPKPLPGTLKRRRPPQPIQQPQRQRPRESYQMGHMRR
Experimental: as §1

[7] = target: T5, hADAM 17 (Homo sapiens, UniProt P78536); experiment: Residual enzyme activity of other metalloproteases; conditions: read-out: Residual enzyme activity ADAM17
T5 construct: purchased R&D systems
T5 sequence (P78536 215-824): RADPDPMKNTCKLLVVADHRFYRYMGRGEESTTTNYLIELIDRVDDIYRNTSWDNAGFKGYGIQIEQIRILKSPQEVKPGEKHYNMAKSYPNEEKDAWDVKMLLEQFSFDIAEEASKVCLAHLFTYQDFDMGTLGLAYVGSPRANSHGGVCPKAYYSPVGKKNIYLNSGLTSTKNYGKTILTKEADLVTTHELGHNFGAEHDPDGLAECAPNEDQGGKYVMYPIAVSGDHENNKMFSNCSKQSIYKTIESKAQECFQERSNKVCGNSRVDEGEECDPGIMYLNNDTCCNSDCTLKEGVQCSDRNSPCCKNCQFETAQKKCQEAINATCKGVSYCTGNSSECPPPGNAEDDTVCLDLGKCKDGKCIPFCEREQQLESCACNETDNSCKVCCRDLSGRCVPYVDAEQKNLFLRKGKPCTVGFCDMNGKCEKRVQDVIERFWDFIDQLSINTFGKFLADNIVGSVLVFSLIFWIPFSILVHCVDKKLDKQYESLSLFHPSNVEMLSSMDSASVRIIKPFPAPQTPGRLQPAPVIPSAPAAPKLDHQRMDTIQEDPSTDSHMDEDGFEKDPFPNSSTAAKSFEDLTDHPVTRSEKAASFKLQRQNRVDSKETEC
Experimental: as §1

Structure (SMILES) | pKi [3] | pIC50 [3] | pKi [4] | pIC50 [4] | also measured
O=C(CCn1c(-c2ccccc2)nnc1-c1ccccc1)NO [Example 8, 3-(3,5-Diphenyl-1,2,4-triazol-4-yl)propanehydroxamic acid] |  |  |  |  | pIC50 [1]: 4.37; pIC50 [2]: 6.45
O=C(Cc1c(-c2ccccc2)nn(Cc2ccccc2)c1-c1ccccc1)NO [Example 39, 2-(1-Benzyl-3,5-diphenyl-pyrazol-4-yl)ethanehydroxamic acid] |  |  |  |  | pIC50 [1]: 6.60; pIC50 [2]: 8.70
O=C(Cc1c(-c2ccccc2)nnn1-c1ccccc1)NO [Example 11, 2-(3,5-Diphenyltriazol-4-yl)ethanehydroxamic acid] |  |  |  |  | pIC50 [1]: 5.84; pIC50 [2]: 7.96
O=C(Cc1c(-c2ccccc2)nn(-c2ccccc2)c1-c1ccccc1)NO [Example 36, 2-(1,3,5-Triphenylpyrazol-4-yl)ethanehydroxamic acid] |  |  |  |  | pIC50 [1]: 5.62; pIC50 [2]: 7.77
O=C(Cc1c(-c2c[nH]nc2C(F)(F)F)n[nH]c1-c1ccccc1)NO [Example 70, 2-[5-Phenyl-3-[3-(trifluoromethyl)-1H-pyrazol-4-yl]-1H-pyrazol-4-yl]ethanehydroxamic acid] | 7.06 | 7.05 | 8.70 | 8.70 | 
O=C(Cc1c(-c2cccc(C(=O)O)c2)[nH]nc1[C@H]1CC[C@H](C(=O)O)CC1)NO [Example 78, trans-3-[3-(4-Carboxycyclohexyl)-4-[2-(hydroxyamino)-2-oxo-ethyl]-1H-pyrazol-5-yl]benzoic acid] | 7.68 | 7.68 | 7.70 | 7.70 | 
O=C(Cc1c(-c2ccc(C(=O)O)cc2)n[nH]c1-c1ccc(Cl)c(O)c1F)NO [Example 65, 4-[5-(4-Chloro-2-fluoro-3-hydroxy-phenyl)-4-[2-(hydroxyamino)-2-oxo-ethyl]-1H-pyrazol-3-yl]benzoic acid] | 7.96 | 7.92 | 8.00 | 8.00 | 
COc1ccc(-c2nc3ccccc3n2CC(=O)NO)cc1 [Example 15, 2-[2-(4-Methoxyphenyl)benzimidazol-1-yl]ethanehydroxamic acid] | 6.60 | 6.59 | 7.03 | 7.02 | 
O=C(NO)C1Cc2ccccc2-c2[nH]nc(-c3ccccc3)c21 (stereo not shown) [Example 68, 3-Phenyl-4,5-dihydro-1H-benzo[g]indazole-4-carbohydroxamic acid] | 5.60 | 5.59 | 7.21 | 7.21 | 
O=C(Cc1c(C2CCCC(C(=O)O)C2)n[nH]c1-c1ccccc1)NO (stereo not shown) [Example 74, 3-[4-[2-(Hydroxyamino)-2-oxo-ethyl]-5-phenyl-1H-pyrazol-3-yl]cyclohexanecarboxylic acid] | 7.26 | 7.26 | 9.00 | 9.00 | 
O=C(Cc1c(-c2cc(O)no2)n[nH]c1-c1ccccc1)NO [Example 69, 2-[3-(3-Hydroxyisoxazol-5-yl)-5-phenyl-1H-pyrazol-4-yl]ethanehydroxamic acid] | 7.85 | 7.85 | 7.80 | 7.77 | 
O=C(Cn1c(-c2ccc(Cl)c(O)c2F)nc2ccc(C(=O)O)cc21)NO [Example 22, 2-(4-Chloro-2-fluoro-3-hydroxy-phenyl)-3-[2-(hydroxyamino)-2-oxo-ethyl]benzimidazole-5-carboxylic acid] | 8.15 | 8.10 | 8.22 | 8.22 | 
O=C(CCc1c(-c2ccccc2)nn(Cc2ccc(Cl)c(O)c2F)c1-c1ccccc1)NO [Example 72, 3-[1-[(4-chloro-2-fluoro-3-hydroxy-phenyl)methyl]-3,5-diphenyl-pyrazol-4-yl]propanehydroxamic acid] | 5.93 | 5.92 | 9.82 | 9.66 | 
O=C(Cc1c(-c2cccc(C(=O)O)c2)n[nH]c1-c1ccccc1)NO [Example 51, 3-[4-[2-(Hydroxyamino)-2-oxo-ethyl]-5-phenyl-1H-pyrazol-3-yl]benzoic acid] | 7.33 | 7.28 | 8.10 | 8.10 | 
O=C(Cc1c(-c2ccc3c(c2)OCO3)n[nH]c1-c1ccc2c(c1)OCO2)NO [Example 57, 2-[3,5-Bis(1,3-benzodioxol-5-yl)-1H-pyrazol-4-yl]ethanehydroxamic acid] | 6.95 | 6.92 | 9.19 | 9.14 | remaining activity at 10 µM ([5]; 10 μM inhibitor): 63%; remaining activity at 200 µM ([5]; 200 μM inhibitor): 10%; remaining activity at 10 µM ([6]; 10 μM inhibitor): 62%; remaining activity at 200 µM ([6]; 200 μM inhibitor): 0%; remaining activity at 10 µM ([7]; 10 μM inhibitor): 57%; remaining activity at 200 µM ([7]; 200 μM inhibitor): 4%
O=C(Cc1c(-c2cccc(C(=O)O)c2)n[nH]c1-c1cc(F)c(O)c(Cl)c1)NO [Example 64, 3-[5-(3-Chloro-5-fluoro-4-hydroxy-phenyl)-4-[2-(hydroxyamino)-2-oxo-ethyl]-1H-pyrazol-3-yl]benzoic acid] | 9.62 | 9.59 | 9.85 | 9.62 | 
O=C(Cc1c(-c2cccc(C(=O)O)c2)n[nH]c1-c1cccc(C(=O)O)c1)NO [Example 58, 3-[3-(3-Carboxyphenyl)-4-[2-(hydroxyamino)-2-oxo-ethyl]-1H-pyrazol-5-yl]benzoic acid] | 7.85 | 7.77 | 8.00 | 7.96 | 
O=C(Cc1c(-c2ccc(C(=O)O)cc2)n[nH]c1-c1ccccc1)NO [Example 52, 4-[4-[2-(Hydroxyamino)-2-oxo-ethyl]-5-phenyl-1H-pyrazol-3-yl]benzoic acid] | 6.94 | 6.89 | 7.77 | 7.74 | 

— patent US20250388544A1, “HETEROAROMATIC INHIBITORS OF ASTACIN PROTEINASES” (VIVORYON THERAPEUTICS N.V., priority 2019, published 2025)
